Measured values reported in patent US20070299103A1, “[1,2,4]Triazolo[4,3-A]Pyridine Derivatives for the Treatment of Hyperproliferative Diseases” (priority 2004, published 2007).

Assays:
human MEK1 = human MEK1 (Homo sapiens, UniProt Q02750); assay: Inhibition of human MEK1 kinase activity, TR-FRET assay; format: biochemical; details: 100 nM MEK1, 15 μM ATP, 300 nM ERK2, two hours; read-out: Inhibition of MEK, Activity (IC50)
Protocol: The activity of the compounds of the present invitation may be determined by the following procedure: Inhibition of human MEK1 kinase activity was monitored with a homogenous, fluorescence based assay. The assay uses time resolved fluorescence resonance energy transfer to probe for phosphorylation of ERK1 by MEK1. The assay is carried out in low volume 96 well microtiterplates. In a total volume of 15 μl, compounds are incubated with 100 nM MEK1, 15 μM ATP, 300 nM ERK2 employing a buffer containing 20 mM TRIS/HCl, 10 mM MgCl2, 100 μM NaVO4, 1 mM DTT, and 0.005% Tween 20 (pH 7.4). After two hours, 5 nM Europium-anti-PY20 (Perkin Elmer) and 50 nM Anti-GST-Allophycocyanin (CisBio) in buffer containing 50 mM EDTA and 0.05% BSA are added and the reaction incubated for one hour in the dark. Time-resolved fluorescence is measured using a LJL-Analyst (Molecular Devices) with an excitation wavelength of 340 nm and an emission wavelength of 665 nm. The final concentration of DMSO is 2%. To assess the inhibitory potential of the compounds, IC50-values were determined.
The following compounds exemplify such activity with “+” meaning 1 μM<IC50≦10 μM and “++” IC50≦1 μM

Murine colon C26 cells = assay: Tumor cell proliferation assay (ATP Lite), C26; format: cell-based; details: 4 days incubation
Protocol: (§1) Murine colon C26, human melanoma A375 and human melanoma Mel5 cells were plated in 96 well Corning white plates (1500 cells/well for C26, and 2000 cells/well for A375, and MiaPaCa-2) and cultured overnight at 37° C. in 5% CO2. Inhibitors were serially diluted in 100% DMSO and subsequently added to cells to reach a final concentration of 0.25% DMSO. The cells were incubated for 4 days in the presence of test compounds in cell growth media (DMEM with 10% fetal bovine serum, 2 mM glutamine for C26, and MiaPaCa-2, and RPMI with 10% fetal bovine serum, 2 mM glutamine for A375). Cell proliferation was quantitated using the ATP lite cell proliferation kit (Packard). Columns 2-4 show the concentration of compounds required to induce 50% cell death (IC50 in μM) of human endometriotic cells. With “+” meaning 100 μM<IC50≦10 μM and “++” IC50≦1 μM and “n.d.” means not determined.

[1] = test system: human melanoma Mel5 cells; assay: Tumor cell proliferation assay (ATP Lite), Mel5; format: cell-based; details: 4 days incubation
Protocol: as §1

[2] = test system: human melanoma A375 cells; assay: Tumor cell proliferation assay (ATP Lite), A375; format: cell-based; details: 4 days incubation
Protocol: as §1

[3] = Microsomal stability assay, human liver microsomes; format: in vitro ADME; details: pooled human liver microsomes, pH 7.4; 3 μM compound, 0.5 mg/ml human liver microsomes, 37° C., 2 mM NADPH; read-out: HLM t½
Protocol: (§2) Compounds were tested on their stability in human, rat and mouse liver microsomal preparations (HLM, RLM and MLM respectively). At a final concentration of 3 μM, compounds were incubated at 37° C. with 0.5 mg/ml human, rat or mouse liver microsomes in a buffer containing 50 mM phosphate, pH 7.4 and 2 mM NADPH. Pooled human liver microsomes or pooled male rat liver microsomes (Sprague Dawley) were obtained from NatuTec (Frankfurt, Germany). Incubations without NADPH served as negative controls. Reactions were stopped after 0, 15, 30, 45 or 60 min by the addition of acetonitrile and microsomes were pelleted by centrifugation (10 min at 6200×g). Supernatants were analyzed by HPLC regarding the concentration of mother compound. Finally, the half-life of compounds in the regarding microsomal preparation was calculated.

[4] = Microsomal stability assay, rat liver microsomes; format: in vitro ADME; details: male, Sprague Dawley, pooled rat liver microsomes, pH 7.4; 3 μM compound, 0.5 mg/ml rat liver microsomes, 37° C., 2 mM NADPH; read-out: RLM t½
Protocol: as §2

Caco-2 cells = assay: Caco-2 permeability assay; format: in vitro ADME; details: 10 μM, pH 7.4, 120 minutes
Protocol: Caco-2 cells obtained from the ATCC at passage number 27 are used. Cells (passage number 40-60) were seeded on to Millipore Multiscreen Caco-2 plates or Falcon HTS inserts at 1×10^5 cells/cm2. Cells were cultured for 20 days in DMEM and media was changed every two or three days. On day 20 the permeability study was performed.
Permeability was studied by applying compound to the apical surface of cell monolayers and measuring compound permeation into the basolateral compartment. The experiment was also performed in the reverse direction (B-A) to investigate active transport. […]
HBSS was then removed from the apical compartment and replaced with test compound dosing solutions. […] Test compound permeability was assessed in duplicate. […]
The integrity of the monolayers throughout the experiment is checked by monitoring lucifer yellow permeation using fluorimetric analysis. […] Test and control compounds were quantified by LC-MS/MS cassette analysis using a 5-point calibration with appropriate dilution of the samples. […]
The permeability coefficient for each compound (Papp) was calculated from the following equation: Papp=[dQ/dt]/[C0×A] […]
Wherein “+” means a caco A-B and caco B-A value of 1-10 and “++” means a caco A-B and caco B-A value of 11-100 and “n.d.” means not determined.

Tumors = details: patients; cited from earlier work
[5] = in vivo; cited from earlier work

Sequence of human MEK1 (Q02750 whole entry): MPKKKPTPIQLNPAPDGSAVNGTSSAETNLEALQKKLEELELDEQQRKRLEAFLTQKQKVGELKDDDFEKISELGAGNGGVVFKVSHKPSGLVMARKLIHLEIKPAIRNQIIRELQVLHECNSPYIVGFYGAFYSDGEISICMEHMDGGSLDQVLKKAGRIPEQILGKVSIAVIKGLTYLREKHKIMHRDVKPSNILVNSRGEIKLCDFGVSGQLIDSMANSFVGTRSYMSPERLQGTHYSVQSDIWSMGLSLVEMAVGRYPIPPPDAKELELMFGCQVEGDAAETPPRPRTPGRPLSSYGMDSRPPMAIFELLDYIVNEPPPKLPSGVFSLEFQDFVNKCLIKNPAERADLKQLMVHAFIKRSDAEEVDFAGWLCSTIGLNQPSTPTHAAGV

Row | IC50 (human MEK1) [nM] | C26 cells IC50 (Murine colon C26 cells) | Mel5 cells IC50 [1] | A375 cells IC50 [2] | half-life at 3 μM [3] [min] | half-life at 3 μM [4] [min] | SMILES | Caco A-B (Caco-2 cells; apical to basolateral) | Caco B-A (Caco-2 cells; basolateral to apical) | efficacy in clinical phase II trials (Tumors) | bioavailability [5]
1 | 1000 to 10000 | + (100 μM<IC50≦10 μM) | + (100 μM<IC50≦10 μM) | + (100 μM<IC50≦10 μM) | – | – | Cc1cc(Br)ccc1Nc1cc2nnc(C)n2cc1C(=O)O [Compound 2a, 7-[(4-Bromo-2-methylphenyl)amino]-3-methyl[1,2,4]triazolo[4,3-a]pyridine-6-carboxylic acid] | – | – | – | –
2 | ≤ 1000 | + (100 μM<IC50≦10 μM) | + (100 μM<IC50≦10 μM) | + (100 μM<IC50≦10 μM) | – | – | Cc1cc(Br)ccc1Nc1cc2nnc(C)n2cc1C(=O)NO [Compound 3a, 7-[(4-Bromo-2-methylphenyl)amino]-N-hydroxy-3-methyl[1,2Z4]triazolo[4,3-a]pyridine-6-carboxamide] | – | – | – | –
3 | 1000 to 10000 | + (100 μM<IC50≦10 μM) | + (100 μM<IC50≦10 μM) | + (100 μM<IC50≦10 μM) | > 120 | > 120 | Cc1cc(Br)ccc1Nc1cc2nnc(C)n2cc1C(=O)NOC[C@@H](O)CO [Compound 3b, 7-[(4-Bromo-2-methylphenyl)amino]-N-([(2S)-2,3-dihydroxypropyl]oxy)-3-methyl[1,2,4]triazolo[4,3-a]pyridine-6-carboxamide] | + (a caco A-B and caco B-A value of 1-10) | + (a caco A-B and caco B-A value of 1-10) | – | –
4 | ≤ 1000 | – | – | – | – | – | Cc1cc(I)ccc1Nc1cc2nnc(C)n2cc1C(=O)NOC[C@H](O)CO [Compound 3c, 7-[(4-Iodo-2-methylphenyl)amino]-N-([(2R)-2,3-dihydroxypropyl]oxy)-3-methyl[1,2,4]triazolo[4,3-a]pyridine-6-carboxamide] | – | – | – | –
5 | – | – | – | – | – | – | O=C(NOCC1CC1)c1ccc(F)c(F)c1Nc1ccc(I)cc1Cl [PD-184352] | – | – | lacking efficacy | low bioavailability
